Results: PMC6222487 (Molecules : A Journal of Synthetic Chemistry and Natural …, 2018)
Like-named read-outs stand apart in the source and are kept apart here.

What was measured:
[1] = biological target: T1, AChE (from electric eel) (Electrophorus electricus, UniProt O42275); assay: biochemical; assay type: biochemical; details: for IC50: mean ± SEM, NA = No potent inhibitory activity
T1 construct: purchased Merck & Co
Procedure: (§1) Photometric 96-well microplates made from polystyrene (Thermo Scientific, Waltham, […]. USA) were used for measurement purposes.
(§2) AChE and BuChE inhibitory activities were measured by the spectrophotometric method of Ellman, with slight modification. Briefly, all in vitro assays were performed in 0.1 M NaH2PO4/Na2HPO4 buffer, pH 7.4, using a THERMO Enzyme-labeled Instrument. The enzyme solutions were prepared to obtain 2.0 units/mL in 2.0 mL aliquots. The assay medium (1 mL) consisted of phosphate buffer (pH 7.4), 10 μL of the enzyme, 30 μL of 0.01 M DTNB, and 30 μL of substrate (ATC or BTC) at a concentration of 0.01 M. The test and reference compounds were first dissolved in DMSO (5‰) and fetal bovine serum (1‰), and then diluted in 0.1 M NaH2PO4/Na2HPO4 buffer (pH 7.4) to provide a final concentration range. The inhibitors were added to the assay solution containing enzyme, buffer, and DTNB with pre-incubation for 20 min at 37 °C, prior to the addition of the substrate. The activity was determined by measuring the increase in absorbance at 410 nm at 1 min intervals at 37 °C. The data were calculated according to the method described by Ellman et al. Each concentration was assayed in triplicate. Blanks containing all of the components except AChE were included in the analyses.

[2] = biological target: T2, BuChE (from equine serum) (Equus caballus, UniProt P81908); assay: biochemical; details: mean ± SEM
T2 construct: purchased Merck & Co; host or cells: equine serum
T2 sequence (P81908 whole entry): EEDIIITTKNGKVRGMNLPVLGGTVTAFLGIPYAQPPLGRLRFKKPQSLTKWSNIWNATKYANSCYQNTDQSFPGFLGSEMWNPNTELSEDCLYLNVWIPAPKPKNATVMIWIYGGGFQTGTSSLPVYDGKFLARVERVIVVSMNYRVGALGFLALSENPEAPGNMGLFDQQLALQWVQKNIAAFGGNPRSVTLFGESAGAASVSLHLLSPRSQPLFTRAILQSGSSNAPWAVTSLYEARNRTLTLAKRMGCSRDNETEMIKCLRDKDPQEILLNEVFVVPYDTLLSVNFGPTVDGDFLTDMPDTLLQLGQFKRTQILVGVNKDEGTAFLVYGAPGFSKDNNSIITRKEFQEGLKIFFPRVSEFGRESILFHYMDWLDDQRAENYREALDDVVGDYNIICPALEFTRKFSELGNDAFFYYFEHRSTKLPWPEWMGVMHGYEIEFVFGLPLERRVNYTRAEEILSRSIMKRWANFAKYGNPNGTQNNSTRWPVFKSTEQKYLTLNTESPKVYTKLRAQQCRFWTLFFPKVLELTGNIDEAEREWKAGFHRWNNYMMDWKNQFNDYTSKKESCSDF
Procedure: as §1, §2

[3] = biological target: T3, Aβ (1-42) (Homo sapiens, UniProt P05067); assay: biochemical; details: self-induced aggregation, thioflavin-T; Aβ 20 μM, 37 °C, 24 h; NA = No potent inhibitory activity
T3 construct: Aβ (1-42) peptide (Sigma-Aldrich); purchased Sigma-Aldrich
T3 sequence (P05067 672-713): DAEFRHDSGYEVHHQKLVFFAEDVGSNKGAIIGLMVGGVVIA
Procedure: A Thioflavin T-based fluorometric assay was performed in order to investigate the self-induced Aβ (1-42) aggregation. Briefly, compounds to be tested were firstly dissolved in DMSO to obtain a 10 mM solution and then diluted in phosphate buffer (pH 7.4) to provide a final concentration range. […] After incubation, thioflavin-T (5 μM in 50 mM glycine-NaOH buffer, pH 8.0) was added into the above 96-well microplate and the samples were diluted to a final volume of 150 μL. […] Each inhibitor was run in triplicate.

[4] = biological target: T3, Aβ (1-42); assay: Aβ (1-42) fibril formation monitored by transmission electron microscopy (TEM); assay type: biochemical; details: Aβ (1-42) 20 µM, compound 50 µM, 37 °C, 24 h
Procedure: Aβ (1-42) peptide (Sigma-Aldrich) was added into a 96-well microplate and then diluted by phosphate buffer (10 mM, pH 7.4) to provide a concentration of 100 μM solution at 4 °C before use and the sample preparation procedure was the same as that used for the Thioflavin T assay. Aliquots (5 μL) of the samples were placed on a carbon-coated copper/rhodium grid for 2 min at room temperature. Each grid was stained with phosphomolybdic acid solution (3%, 5 μL) for 2 min. After draining off the excess staining solution, the specimen was transferred for imaging by transmission electron microscopy.

[5] = biological target: T4, AChE (Electrophorus electricus, UniProt O42275); assay: Kinetic study of AChE inhibition (Lineweaver-Burk plot); assay type: biochemical; details: substrate 0.1–0.4 mM
T4 construct: purchased Merck & Co
T4 sequence (O42275 24-633): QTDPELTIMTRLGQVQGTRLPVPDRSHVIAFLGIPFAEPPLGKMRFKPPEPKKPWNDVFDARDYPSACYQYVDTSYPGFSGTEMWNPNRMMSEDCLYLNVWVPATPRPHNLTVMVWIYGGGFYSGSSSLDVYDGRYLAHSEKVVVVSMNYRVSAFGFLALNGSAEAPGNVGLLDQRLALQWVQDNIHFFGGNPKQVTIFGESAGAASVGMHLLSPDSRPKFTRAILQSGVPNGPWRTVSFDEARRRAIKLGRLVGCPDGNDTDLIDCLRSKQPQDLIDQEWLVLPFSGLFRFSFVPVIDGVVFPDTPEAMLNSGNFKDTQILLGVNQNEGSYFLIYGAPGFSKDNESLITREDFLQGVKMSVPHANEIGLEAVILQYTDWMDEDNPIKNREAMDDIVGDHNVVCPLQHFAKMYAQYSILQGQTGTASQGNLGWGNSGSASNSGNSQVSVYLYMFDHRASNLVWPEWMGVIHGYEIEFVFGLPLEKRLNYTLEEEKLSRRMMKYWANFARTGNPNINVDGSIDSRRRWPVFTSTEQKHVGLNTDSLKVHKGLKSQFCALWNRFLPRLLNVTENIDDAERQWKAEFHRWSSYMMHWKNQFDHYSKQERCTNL
Procedure: The assay solution (100 μL) was afforded by the addition of 30 μL of DTNB (0.01 M), 10 μL of 2 units/mL AChE, and 30 μL of substrate (ATC) to the phosphate buffer (0.1 M, pH 7.0). Three different concentrations of 8q were added to the assay solution with the AChE and pre-incubated for 20 min at 37 °C, followed by the addition of substrate in different concentrations. Kinetic characterization of the hydrolysis of ATC catalysed by AChE was carried out at 410 nm. A parallel control was made with the assay solution of no inhibitor for each time. The plots were assessed by a weighted least square analysis that assumed the variance of V to be a constant percentage of V for the entire data set.
Figure 2 Determination of the inhibitory type of selected compound 8q on AChE. Merged Lineweaver-Burk reciprocal plots of AChE initial velocity with increasing substrate concentrations (0.1–0.4 mM) in the absence or presence of 8q. Lines were derived from a weighted least-squares analysis of data points.

[6] = test system: HepG2 cells; assay type: cell-based; details: for Cell viability: 24 h, CCK-8; for Cytotoxicity (in words): HepG2 cells, up to 500 μM
Procedure: One of the best documented side-effects of the drug discovery and development of AD is cytotoxicity. To probe whether such a type of target compounds involves cytotoxic effects, we respectively treated HepG2 cells and SH-SY5Y cells with several concentrations of the corresponding compound. Cell viability was determined by a CCK-8 assay. […].
HepG2 cells (human hepatocellular liver carcinoma cell line from American Type Culture Collection, ATCC) were cultured in Eagle’s minimum essential medium (EMEM) supplemented with 10% heat-inactivated fetal bovine serum (FBS), and 100 U/mL of penicillin/streptomycin (Gino Biomedical Technology Co. LTD., Hangzhou, China). Cultures were seeded into flasks containing supplemented medium and maintained at 37 °C in a humidified atmosphere of 5% CO2. For assays, cells (1.0 × 10^5 cells/well) were seeded in a 96-well plate in complete medium, the medium was removed after 24 h, and cells were exposed to the increasing concentrations of compounds 8q or 8r (0, 25, 50, 125, 200, 300, 400, and 500 μM) in DMEM with no serum for a further 24 h. Cell survival was measured through a CCK-8 assay. All compounds were dissolved in pure DMSO.

[7] = test system: SH-SY5Y cells; assay type: cell-based; details: for Cytotoxicity (in words): SH-SY5Y cells, up to 500 μM; for Cell viability: SH-SY5Y, 24 h, CCK-8
Procedure: To probe whether such a type of target compounds involves cytotoxic effects, we respectively treated HepG2 cells and SH-SY5Y cells with several concentrations of the corresponding compound. Cell viability was determined by a CCK-8 assay.
SH-SY5Y cells (human neuroblastoma cell line from American Type Culture Collection, ATCC, Manassas, VA, USA) were seeded into 96-well plates at a density of 4 × 10^4 cells/mL in Dulbecco’s modified Eagle’s medium (DMEM) supplemented with 10% FBS and 100 U/mL of penicillin/streptomycin (Gino Biomedical Technology Co. LTD., Hangzhou, China), and incubated in a humidified atmosphere containing 5% CO2 at 37 °C. […] After this incubation, 10 μL/well of CCK-8 (5 mg/mL) was added and incubated at 37 °C for 4 h. The optical density (OD) of each well was measured using an Epoch Microplate Spectrophotometer (BioTek Instruments, Inc., Winooski, VT, USA) with a test wavelength of 450, 630 nm.

T1 sequence (O42275 24-633): as above

SMILES | IC50 [1] | IC50 [2] | IC50 [3] | Cell viability ([6]; HepG2, 25 µM) | Cell viability ([6]; HepG2, 50 µM) | Cell viability ([6]; HepG2, 125 µM) | Cell viability ([6]; HepG2, 200 µM) | Cell viability ([6]; HepG2, 300 µM) | Cell viability ([6]; HepG2, 400 µM) | Cell viability ([6]; HepG2, 500 µM) | Cytotoxicity (in words) [6] | Cytotoxicity (in words) [7] | Cell viability ([7]; 25 µM) | Cell viability ([7]; 50 µM) | Cell viability ([7]; 125 µM) | Cell viability ([7]; 200 µM) | Cell viability ([7]; 300 µM) | Cell viability ([7]; 400 µM) | Cell viability ([7]; 500 µM) | also measured
Cc1nc(C)c(/C=C/C(=O)OCCCOC(=O)c2nc(C)c(C)nc2C)nc1C [Compound 8q, 3-{[(2E)-3-(3,5,6-Trimethylpyrazin-2-yl)prop-2-enoyl]oxy}propyl 3,5,6-trimethylpyrazine-2-carboxylate] | 0.00139 ± 0.00033 µM | 4040 ± 910 µM | 17.36 ± 0.027 µM | 96.81 ± 3.05 ^ns percentage of control | 91.09 ± 0.99 ^ns percentage of control | 81.19 ± 1.48 percentage of control | 64.81 ± 0.54 percentage of control | 66.75 ± 1.11 percentage of control | 68.89 ± 0.51 percentage of control | 70.10 ± 1.98 percentage of control | no obvious cytotoxicity | no obvious cytotoxicity | 104.30 ± 0.29 ^ns percentage of control | 96.08 ± 0.78 ^ns percentage of control | 80.25 ± 1.53 percentage of control | 72.17 ±0.54 percentage of control | 58.92 ± 0.70 percentage of control | 55.14 ± 0.50 percentage of control | 55.28 ± 0.55 percentage of control | Aβ amorphous deposits seen by TEM [4]: could obviously alleviate the formation of Aβ amorphous deposits compared with tacrine; Aβ fibril formation seen by TEM [4]: no obvious Aβ fibril was detected; Inhibitory type on AChE [5]: mixed-type inhibitor
Cc1nc(C)c(C(=O)OCCCOC(=O)c2ccccn2)nc1C [Compound 8r, 3-[(Pyridine-2-carbonyl)oxy]propyl 3,5,6-trimethylpyrazine-2-carboxylate] | 0.00025 ± 0.00039 µM | 3300 ± 60 µM | 49.14 ± 0.025 µM | 102.83 ± 0.57 ^ns percentage of control | 88.05 ± 1.12 ^ns percentage of control | 81.72 ± 0.87 percentage of control | 71.10 ± 1.06 percentage of control | 71.10 ± 0.80 percentage of control | 68.85 ± 1.11 percentage of control | 68.31 ± 0.53 percentage of control | no obvious cytotoxicity | no obvious cytotoxicity | 94.51 ± 0.45 ^ns percentage of control | 91.46 ± 0.29 ^ns percentage of control | 83.23 ± 0.78 percentage of control | 83.26 ± 2.74 percentage of control | 68.43 ± 0.48 percentage of control | 62.68 ± 0.56 percentage of control | 66.38 ± 1.57 percentage of control | AChE inhibition potency relative to tacrine ([1]; stronger than tacrine): 293 times
